Measured values from PMC6488665 (2019).

Test system: kdp c-di-AMP riboswitch transcript (5'-UTR of kdpFABC, run-off from -88 to +363 template) (RNA, riboswitch) AUAAAUCAUUCAUAAAAUUUCCAAAAAAACCUAAAAUCGCUGAGUUCCAGAAAUGGAGCGGGGGAACCAAUUUUGUGCAUCGUCACUUGGGGUGAAUCUUUCAGUUUUGAAAGUAGGGCUACUCUUUAGGCCCGAAUCCGACAGCUAACCUCGUAAGCGUUUAGAGAGGAGGUUUACUUUUUGUUGUUCAUUUUUUGAACACUGAGUAGAGCUCAGUGUUCUUUUUUAAUAUUUAAAUGGUAAAUUUUAACAAAAAAGAGGGGAUAGUUAUGUUAGAUGUUGUAAUGGUCGGGAUUUUUAUUUUAUUAGUUGCAUCGAUGGCAAGUCUUGCAAGUUGGUCAGAUAAAGUUGUGAAAGAAGGA
Test: in vitro transcription termination (E. coli RNA polymerase), gel
Settings: 150 mM KCl, 10 mM MgCl2; 40 mM Tris-HCl pH 7.5, 37 °C; c-di-AMP 0-5 µM; termination rises 27% to 63%; functional, no constant

binding: yes
SMILES: Nc1ncnc2c1ncn2[C@@H]1O[C@@H]2COP(=O)(O)O[C@H]3[C@@H](O)[C@H](n4cnc5c(N)ncnc54)O[C@@H]3COP(=O)(O)O[C@H]2[C@H]1O
